# Test results from PubChem BioAssay AID1259408 (Genetic Toxicology Data Bank (GENE-TOX), 2018).
# The source made the active and inactive calls. No rule for the calls is given here.
# Tested on: GENE-TOX genotoxicity assays, various organisms and cells
# Assay: GENE-TOX mutagenicity studies
# Settings: for call: Assay Type: In vivo carcinogenicity studies
# [1] = Species/Cell Type: Drosophila melanogaster, Assay Type: Sex-linked recessive lethal gene mutation, Assay Code: SRLT, Evaluation Type: Evaluation A (Pre-1980)
# [2] = Species/Cell Type: Mouse (C3H/10T1/2) cells, Assay Type: Cell transformation, Assay Code: CTH+, Evaluation Type: Evaluation A (Pre-1980)
# [3] = Species/Cell Type: Neurospora crassa, Assay Type: Aneuploidy, chromosome aberrations, Assay Code: NEN-, Evaluation Type: Evaluation A (Pre-1980)
# [4] = Species/Cell Type: Nonhuman, Assay Type: Sister-chromatid exchange (SCE) in vitro, Assay Code: SC2+D, Dose Response: With dose response, Evaluation Type: Evaluation A (Pre-1980)
# [5] = Species/Cell Type: Nonhuman, Assay Type: Sister-chromatid exchange (SCE) in vivo, Assay Code: SC3+D, Dose Response: With dose response, Evaluation Type: Evaluation B (Post-1980)
# [6] = Species/Cell Type: Saccharomyces cerevisiae, Assay Type: Mitotic recombination or gene conversion, Assay Code: YEC+, Evaluation Type: Evaluation A (Pre-1980)
# [7] = Species/Cell Type: Saccharomyces cerevisiae, Assay Type: Mitotic recombination or gene conversion, Assay Code: YEH+, Evaluation Type: Evaluation A (Pre-1980)
# [8] = Species/Cell Type: Saccharomyces cerevisiae, Assay Type: Reverse gene mutation, Assay Code: YER+, Evaluation Type: Evaluation A (Pre-1980)
# [9] = Species/Cell Type: Salmonella typhimurium (one or more of the five standard strains: TA98, TA100, TA1535, TA1537, and TA1538), Assay Type: Histidine reverse gene mutation, Ames assay, Assay Code: SAL+, Evaluation Type: Evaluation A (Pre-1980)
# [10] = Species/Cell Type: Salmonella typhimurium, Assay Type: Forward and reverse gene mutation, host-mediated assay, Assay Code: HMA+, Evaluation Type: Evaluation A (Pre-1980)
# [11] = Species/Cell Type: Syrian hamster embryo (SHE) cells, Assay Type: Cell transformation, clonal assay, Assay Code: CTC+, Evaluation Type: Evaluation A (Pre-1980)
# [12] = Species/Cell Type: Nonhuman, Assay Type: Sister-chromatid exchange (SCE) in vitro, Assay Code: SC2+D, Dose Response: With dose response, Evaluation Type: Evaluation B (Post-1980)
smiles,measurement,setting,value
CCN(CC)CCNc1ccc(CO)c2sc3ccccc3c(=O)c12,mutagenic call,"Species/Cell Type: Drosophila melanogaster, Assay Type: Sex-linked recessive lethal gene mutation, Assay Code: SRL+, Evaluation Type: Evaluation A (Pre-1980)",active; positive
same,mutagenic call,[1],no conclusion
same,mutagenic call,"Species/Cell Type: Drosophila melanogaster, Sex: Male, Assay Type: Heritable translocation test, chromosome aberrations, Assay Code: DHT-, Evaluation Type: Evaluation A (Pre-1980)",inactive; negative
same,mutagenic call,"Species/Cell Type: Fischer rat embryo (RLV/1706) cells, Assay Type: Cell transformation, viral enhanced, Assay Code: CTR+, Evaluation Type: Evaluation A (Pre-1980)",active; positive
same,mutagenic call,"Species/Cell Type: Glycine max (soybean), Assay Type: Gene mutation, Assay Code: GLM-, Evaluation Type: Evaluation A (Pre-1980)",inactive; negative
same,mutagenic call,"Species/Cell Type: Mammalian polychromatic erythrocytes, Assay Type: Micronucleus test, chromosome aberrations, Assay Code: MNT+, Evaluation Type: Evaluation A (Pre-1980)",active; positive
same,mutagenic call,[2],active; positive
same,mutagenic call,"Species/Cell Type: Mouse germ cells, Sex: Male, Assay Type: Unscheduled DNA synthesis (UDS) in vivo, DNA effects, Assay Code: UDT+, Evaluation Type: Evaluation A (Pre-1980)",active; positive
same,mutagenic call,"Species/Cell Type: Mouse lymphoma (L5178Y) cells, Assay Type: Forward gene mutation at the thymidine kinase (TK) locus, chromosome aberrations, Assay Code: L51+, Evaluation Type: Evaluation A (Pre-1980)",active; positive
same,mutagenic call,"Species/Cell Type: Mouse, Sex: Female, Assay Type: Spot test, gene mutation, Assay Code: MSTT, Evaluation Type: Evaluation A (Pre-1980)",no conclusion
same,mutagenic call,"Species/Cell Type: Mouse, Sex: Male, Assay Type: Specific locus test, gene mutation, Assay Code: SLT-, Evaluation Type: Evaluation A (Pre-1980)",inactive; negative
same,mutagenic call,"Species/Cell Type: Mouse, Sex: Male, Assay Type: Sperm morphology, Assay Code: SPI+, Evaluation Type: Evaluation A (Pre-1980)",active; positive
same,mutagenic call,[3],inactive; negative
same,mutagenic call,"Species/Cell Type: Neurospora crassa, Assay Type: Forward gene mutation, Assay Code: NEF+, Evaluation Type: Evaluation A (Pre-1980)",active; positive
same,mutagenic call,"Species/Cell Type: Nonhuman bone marrow, Assay Type: Chromosome aberrations, in vivo, Assay Code: CY#T, Evaluation Type: Evaluation A (Pre-1980)",no conclusion
same,mutagenic call,"Species/Cell Type: Nonhuman, Assay Type: Chromosome aberrations in vitro, Assay Code: CY&T, Evaluation Type: Evaluation A (Pre-1980)",no conclusion
same,call,"Species/Cell Type: Nonhuman, Assay Code: CCG-L, Evaluation Type: Evaluation A (Pre-1980)",inactive; negative
same,mutagenic call,[4],active; positive
same,mutagenic call,[5],active; positive
same,mutagenic call,"Species/Cell Type: Rodents, Sex: Male, Assay Type: Dominant lethal test, Assay Code: DLT+, Evaluation Type: Evaluation A (Pre-1980)",active; positive
same,mutagenic call,"Species/Cell Type: Rodents, Sex: Male, Assay Type: Dominant lethal test, Assay Code: DLT-, Evaluation Type: Evaluation A (Pre-1980)",inactive; negative
same,mutagenic call,[6],active; positive
same,mutagenic call,[7],active; positive
same,mutagenic call,[8],active; positive
same,mutagenic call,[9],active; positive
same,mutagenic call,"Species/Cell Type: Salmonella typhimurium, Assay Type: Forward and reverse gene mutation, body fluid assay, Assay Code: BFU+, Evaluation Type: Evaluation A (Pre-1980)",active; positive
same,mutagenic call,[10],active; positive
same,mutagenic call,"Species/Cell Type: Schizosaccharomyces pombe, Assay Type: Forward gene mutation, Assay Code: YEY+, Evaluation Type: Evaluation A (Pre-1980)",active; positive
same,mutagenic call,[11],active; positive
NS(=O)(=O)c1ccc(C(=O)O)cc1,mutagenic call,"Species/Cell Type: Mammalian polychromatic erythrocytes, Assay Type: Micronucleus test, chromosome aberrations, Assay Code: MNTT, Evaluation Type: Evaluation B (Post-1980)",no conclusion
COc1cccc(OC)c1O,mutagenic call,"Species/Cell Type: Human lymphocytes, Assay Type: Sister-chromatid exchange (SCE) in vitro, Assay Code: SCLT, Evaluation Type: Evaluation B (Post-1980)",no conclusion
same,mutagenic call,"Species/Cell Type: Human, Assay Type: Sister-chromatid exchange (SCE) in vitro, Assay Code: SC1T, Evaluation Type: Evaluation B (Post-1980)",no conclusion
CO[C@H]1/C=C/O[C@@]2(C)Oc3c(C)c(O)c4c(O)c(c(/C=N/N5CCN(C)CC5)c(O)c4c3C2=O)NC(=O)/C(C)=C\C=C\[C@H](C)[C@H](O)[C@@H](C)[C@@H](O)[C@@H](C)[C@H](OC(C)=O)[C@@H]1C,mutagenic call,[1],no conclusion
O=C(O)CN(CC(=O)O)C1C[C@H]1N(CC(=O)O)CC(=O)O (stereo partly specified),mutagenic call,"Species/Cell Type: Chinese hamster lung (V79) cells, Assay Type: Forward gene mutation at the HPRT or ouabain locus, Assay Code: V79+, Evaluation Type: Evaluation A (Pre-1980)",active; positive
CC(C)CN(N=O)C(N)=O,mutagenic call,"Species/Cell Type: Arabidopsis species, Assay Type: Gene mutation, Assay Code: ARM+D, Dose Response: With dose response, Evaluation Type: Evaluation A (Pre-1980)",active; positive
O=[N+]([O-])c1ccc2c(c1)Cc1ccccc1-2,mutagenic call,"Species/Cell Type: Escherichia coli polA (W3110 vs P3478), Assay Type: Rec-assay, DNA effects (bacterial DNA repair), Assay Code: RE2T, Evaluation Type: Evaluation A (Pre-1980)",no conclusion
same,mutagenic call,"Species/Cell Type: Escherichia coli polA (W3119 vs P3478), Assay Type: Rec-assay, DNA effects (bacterial DNA repair), Assay Code: RE1+, Evaluation Type: Evaluation A (Pre-1980)",active; positive
same,mutagenic call,"Species/Cell Type: Mouse, Sex: Male, Assay Type: Sperm morphology, Assay Code: SPI-, Evaluation Type: Evaluation A (Pre-1980)",inactive; negative
same,mutagenic call,[3],inactive; negative
same,mutagenic call,[12],active; positive
same,mutagenic call,[5],active; positive
same,mutagenic call,[7],active; positive
same,mutagenic call,[9],active; positive
same,mutagenic call,[10],active; positive
same,mutagenic call,[11],active; positive
Cc1c(N)nc([C@H](CC(N)=O)NC[C@H](N)C(N)=O)nc1C(=O)N[C@H](C(=O)N[C@H](C)[C@@H](O)[C@H](C)C(=O)N[C@H](C(=O)NCCc1nc(-c2nc(C(=O)NCCC[S+](C)C)cs2)cs1)[C@@H](C)O)[C@@H](OC1OC(CO)C(O)C(O)C1OC1OC(CO)C(O)C(OC(N)=O)C1O)c1cnc[nH]1 (stereo partly specified),mutagenic call,"Species/Cell Type: Chinese hamster ovary (CHO) cells, Assay Type: Forward gene mutation at the HPRT locus, Assay Code: CHO+, Evaluation Type: Evaluation B (Post-1980)",active; positive
same,mutagenic call,"Species/Cell Type: Human bone marrow, Assay Type: Chromosome aberrations in vivo, Assay Code: CY5+, Evaluation Type: Evaluation A (Pre-1980)",active; positive
same,mutagenic call,"Species/Cell Type: Human cell culture, Assay Type: Chromosome aberrations in vitro, Assay Code: CYZ+, Evaluation Type: Evaluation A (Pre-1980)",active; positive
same,mutagenic call,"Species/Cell Type: Human lymphocytes or leukocytes, Assay Type: Chromosome aberrations in vitro, Assay Code: CY7+D, Dose Response: With dose response, Evaluation Type: Evaluation A (Pre-1980)",active; positive
same,mutagenic call,"Species/Cell Type: Human lymphocytes, Assay Type: Micronucleus test in vitro, chromosome aberrations, Assay Code: MN7+, Evaluation Type: Evaluation A (Pre-1980)",active; positive
same,mutagenic call,"Species/Cell Type: Human lymphocytes, Assay Type: Sister-chromatid exchange (SCE) in vitro, Assay Code: SCL+, Evaluation Type: Evaluation B (Post-1980)",active; positive
same,mutagenic call,"Species/Cell Type: Human lymphocytes, Assay Type: Sister-chromatid exchange (SCE) in vitro, Assay Code: SCL-, Evaluation Type: Evaluation A (Pre-1980)",inactive; negative
same,mutagenic call,"Species/Cell Type: Human, Assay Type: Sister-chromatid exchange (SCE) in vitro, Assay Code: SC1+D, Dose Response: With dose response, Evaluation Type: Evaluation B (Post-1980)",active; positive
same,mutagenic call,"Species/Cell Type: Human, Assay Type: Sister-chromatid exchange (SCE) in vitro, Assay Code: SC1-, Evaluation Type: Evaluation A (Pre-1980)",inactive; negative
same,mutagenic call,"Species/Cell Type: Mammalian polychromatic erythrocytes, Assay Type: Micronucleus test, chromosome aberrations, Assay Code: MNT+, Evaluation Type: Evaluation B (Post-1980)",active; positive
same,mutagenic call,"Species/Cell Type: Mammalian polychromatic erythrocytes, Assay Type: Micronucleus test, chromosome aberrations, Assay Code: MNTT, Evaluation Type: Evaluation A (Pre-1980)",no conclusion
same,mutagenic call,[2],active; positive
same,mutagenic call,"Species/Cell Type: Nonhuman, Assay Type: Chromosome aberrations in vitro, Assay Code: CY&+, Evaluation Type: Evaluation A (Pre-1980)",active; positive
same,call,"Species/Cell Type: Nonhuman, Assay Code: CCGT, Evaluation Type: Evaluation A (Pre-1980)",no conclusion
same,mutagenic call,[4],active; positive
same,mutagenic call,[12],active; positive
same,mutagenic call,[5],active; positive
same,mutagenic call,"Species/Cell Type: Saccharomyces cerevisiae, Assay Type: Forward gene mutation, Assay Code: YEF+, Evaluation Type: Evaluation A (Pre-1980)",active; positive
same,mutagenic call,[6],active; positive
same,mutagenic call,[7],active; positive
same,mutagenic call,[8],active; positive
same,mutagenic call,"Species/Cell Type: Vicia faba, Assay Type: Chromosome aberrations, Assay Code: VIC+, Evaluation Type: Evaluation A (Pre-1980)",active; positive
C#CCNC(=NCCSCc1nc[nH]c1C)NC#N,mutagenic call,"Species/Cell Type: Mammalian polychromatic erythrocytes, Assay Type: Micronucleus test, chromosome aberrations, Assay Code: MNT-, Evaluation Type: Evaluation B (Post-1980)",inactive; negative
CCN(CC)c1ccc2nc3ccc(N=Nc4ccc(N(C)C)cc4)cc3[n+](-c3ccccc3)c2c1,mutagenic call,"Species/Cell Type: Bacillus subtilis (H17 vs M45T), Assay Type: Rec-assay, spot test, DNA effects (bacterial DNA repair), Assay Code: REXT, Evaluation Type: Evaluation A (Pre-1980)",no conclusion
[N-]=[N+]=CC(=O)NCC(N)=O,mutagenic call,[12],active; positive
same,mutagenic call,[9],active; positive
